From patent publication US20230416316A1, “ADP-RIBOSE BINDING PEPTIDES WITH ANTI-CANCER ACTIVITY AND USE THEREOF” (PearlsInMires Co., Ltd., priority 2021, published 2023)

Key:
Format in all cases: cell-based
H1975 cells [1] = assay: Cell viability (MTT, photomicrographs) in H1975 cells; settings: 16 μM peptide, 24 hours
Description: (§1) After culturing 3×10^3 H1975 cells in a 96-well plate for 24 hours under conditions of 37° C. and 5% CO2, the cells were either untreated or treated with the peptides of Examples 1 to 28 at a concentration of 16 μM, respectively. Then, the cells were cultured for 24 hours under conditions of 37° C. and 5% CO2, and 10 μl of 3-(4,5-dimethylthiazol-2-yl)-2,5-diphenyltetrazolium bromide reagent was added to each well, followed by reaction for 1 hour. After the reaction was completed, the reagent was removed, 200 μl of dimethyl sulfoxide was added to each well, and the absorbance was measured to confirm cell viability.

H1975 cells [2] = assay: ADP-ribose level by ELISA in H1975 cells; settings: 0.2-32 μM peptide, 24 hours
Description: (§2) The peptides of Examples 1 to 28 of the present disclosure are designed to inhibit the action of poly ADP-ribose degradation enzyme. In Experimental Example 1, it was confirmed through cell experiments whether poly ADP-ribose was inhibited from being degraded by each of the peptides and accumulated in cancer cells.
(§3) 5×10^5 H1975 cells were divided into a group not treated with the peptide of Example and a group treated with 0.2, 1, 2, 4, 8, 16, and 32 μM of the peptide of Example 2 (SEQ ID NO: 2), and cultured for 24 hours under conditions of 37° C. and 5% CO2 in RPMI-1640 medium supplemented with 10% FBS, 100 units/ml penicillin, and 100 μg/ml streptomycin. The medium of the cultured cells was removed, and the samples were treated with RIPA buffer and 1% SDS. The prepared supernatant was used for ELISA analysis to detect and analyze ADP-ribose.

Aspc-1 cells [3] = assay: Cell viability (MTT, photomicrographs) in Aspc-1 cells; settings: 16 μM peptide, 24 hours
Description: as §1, with “Aspc-1” for “H1975”

U-87MG cells [4] = assay: Cell viability (MTT, photomicrographs) in U-87MG cells; settings: 16 μM peptide, 24 hours
Description: as §1, with “U-87MG” for “H1975”

U-87MG cells [5] = assay: ADP-ribose level by ELISA in U-87MG cells; settings: 0.2-32 μM peptide, 24 hours
Description: as §2
5×10^5 U-87MG cells were divided into a group not treated with the peptide of Example and a group treated with 0.2, 1, 2, 4, 8, 16, and 32 μM of the peptide of Example 1 (SEQ ID NO: 1) or Example 8 (SEQ ID NO: 8), and cultured for 24 hours under conditions of 37° C. and 5% CO2 in Eagle's minimum essential medium (EMEM) supplemented with 10% FBS, 100 units/ml penicillin, and 100 μg/ml streptomycin. The medium of the cultured cells was removed, and the samples were treated with RIPA buffer and 1% SDS. The prepared supernatant was used for ELISA analysis to detect and analyze ADP-ribose.

Aspc-1 cells [6] = assay: ADP-ribose level by ELISA in Aspc-1 cells; settings: 0.2-32 μM peptide, 24 hours
Description: as §2
as §3, with “5×10^5 Aspc-1” for “5×10^5 H1975”, “Example 3” for “Example 2”, “NO: 3),” for “NO: 2),”

HCT116 cells = assay: Cell viability (MTT, photomicrographs) in HCT116 cells; settings: 16 μM peptide, 24 hours
Description: as §1, with “HCT116” for “H1975”

Caki-1 cells = assay: Cell viability (MTT, photomicrographs) in Caki-1 cells; settings: 16 μM peptide, 24 hours
Description: as §1, with “Caki-1” for “H1975”

MDA-MB-231 cells = assay: Cell viability (MTT, photomicrographs) in MDA-MB-231 cells; settings: 16 μM peptide, 24 hours
Description: as §1, with “culturing 3×10^3 MDA-MB-231 cells in” for “culturing 3×10^3 H1975 cells in”, “and 5% C02, the cells” for “and 5% CO2, the cells”

Hep G2 cells = assay: Cell viability (MTT, photomicrographs) in Hep G2 cells; settings: 16 μM peptide, 24 hours
Description: 2-4. Change in viability in Hep G2 cells according to treatment with ADP-ribose binding peptide After culturing 3×10^3 Hep G2 cells in a 96-well plate for 24 hours under conditions of 37° C. and 5% CO2, the cells were either untreated or treated with the peptides of Examples 1 to 28 at a concentration of 16 μM, respectively. Then, the cells were cultured for 24 hours under conditions of 37° C. and 5% CO2, and 10 μl of 3-(4,5-dimethylthiazol-2-yl)-2,5-diphenyltetrazolium bromide reagent was added to each well, followed by reaction for 1 hour. After the reaction was completed, the reagent was removed, 200 μl of dimethyl sulfoxide was added to each well, and the absorbance was measured to confirm cell viability.

RRYTVQFTTMVQVNEETGNRRPVM (ADP-ribose binding peptide) [Example 9]
cancer cell growth and survival (H1975 cells [1]): inhibited from growing and killed
amount of increase in ADP-ribose (fold change) compared to the control group (H1975 cells [2]): significant increase in the amount of ADP-ribose in a concentration-dependent manner

GRKKRRQRRRPQAPYIIDLPSWTQFRQDIGTMRAVRR (GRKKRRQRRRPQAPYIIDLPSWTQFRQDTGTMRAVRR; ADP-ribose binding peptide with CPP) [Example 17]
cancer cell growth and survival (Aspc-1 cells [3]): completely killed

YNYTVNYTTHTQTNKTSSFCRSVRR (ADP-ribose binding peptide) [Example 8]
cancer cell growth and survival (U-87MG cells [4]): inhibited from growing and killed
amount of increase in ADP-ribose (fold change) compared to the control group (U-87MG cells [5]): significant increase in the amount of ADP-ribose in a concentration-dependent manner

APYIIDLPSWTQFRQDIGTMRAVRR (APYIIDLPSWTQFRQDTGTMRAVRR; ADP-ribose binding peptide) [Example 3]
amount of increase in ADP-ribose (fold change) compared to the control group (Aspc-1 cells [6]): significant increase in the amount of ADP-ribose in a concentration-dependent manner
cancer cell growth and survival (Aspc-1 cells [3]): inhibited from growing and killed

GRKKRRQRRRPQGRYDVHLGERMRYAVYWDELASEVRR (ADP-ribose binding peptide with CPP) [Example 27]
cancer cell growth and survival (HCT116 cells): completely killed

GRKKRRQRRRPQTAYEASVCDYLEQQVARGN (ADP-ribose binding peptide with CPP) [Example 28]
cancer cell growth and survival (Caki-1 cells): completely killed

GRKKRRQRRRPQFCYLIYENSMSQMNRQTRRRRRLRR (GRKKRRQRRRPQFCYLIYFNSMSQMNRQTRRRRRLRR; ADP-ribose binding peptide with CPP) [Example 19]
cancer cell growth and survival (MDA-MB-231 cells): completely killed

GRKKRRQRRRPQAPYIIDLQSMNQFRQDTGTLRPVRR (ADP-ribose binding peptide with CPP) [Example 16]
cancer cell growth and survival (H1975 cells [1]): completely killed

GRKKRRQRRRPQFSYKIDFAEMKQMNLTTGKQRLIKR (ADP-ribose binding peptide with CPP) [Example 21]
cancer cell growth and survival (Caki-1 cells): completely killed

GRKKRRQRRRPQFSYVIDENTMGQINRQTQRQRRVRR (GRKKRRQRRRPQFSYVIDFNTMGQINRQTQRQRRVRR; ADP-ribose binding peptide with CPP) [Example 20]
cancer cell growth and survival (HCT116 cells): completely killed

GRKKRRQRRRPQRVYTIDENSMQQINEDTGTARAIQR (GRKKRRQRRRPQRVYTIDFNSMQQINEDTGTARAIQR; ADP-ribose binding peptide with CPP) [Example 18]
cancer cell growth and survival (Hep G2 cells): completely killed

APYIIDLQSMNQFRQDIGTLRPVRR (APYIIDLQSMNQFRQDTGTLRPVRR; ADP-ribose binding peptide) [Example 2]
cancer cell growth and survival (H1975 cells [1]): inhibited from growing and killed
amount of increase in ADP-ribose (fold change) compared to the control group (H1975 cells [2]): significant increase in the amount of ADP-ribose in a concentration-dependent manner

WIWYWKNESGTWIQYGEEKDKRKN (ADP-ribose binding peptide) [Example 10]
amount of increase in ADP-ribose (fold change) compared to the control group (Aspc-1 cells [6]): significant increase in the amount of ADP-ribose in a concentration-dependent manner
cancer cell growth and survival (Aspc-1 cells [3]): inhibited from growing and killed

GRKKRRQRRRPQRRYTVQFTTMVQVNEETGNRRPVM (ADP-ribose binding peptide with CPP) [Example 23]
cancer cell growth and survival (H1975 cells [1]): completely killed

GRKKRRQRRRPQYNYTVNYTTHTQTNKTSSFCRSVRR (ADP-ribose binding peptide with CPP) [Example 22]
cancer cell growth and survival (U-87MG cells [4]): completely killed

GRKKRRQRRRPQRHYTVNLNTYTATDTKGHSLSVQR (ADP-ribose binding peptide with CPP) [Example 26]
cancer cell growth and survival (MDA-MB-231 cells): completely killed

GRKKRRQRRRPQVPYIIDLQSMHQFRQDIGTMRPVRR (GRKKRRQRRRPQVPYIIDLQSMHQFRQDTGTMRPVRR; ADP-ribose binding peptide with CPP) [Example 15]
cancer cell growth and survival (U-87MG cells [4]): completely killed

GRKKRRQRRRPQWIWYWKNESGTWIQYGEEKDKRKN (ADP-ribose binding peptide with CPP) [Example 24]
cancer cell growth and survival (Aspc-1 cells [3]): completely killed

VPYIIDLQSMHQFRQDIGTMRPVRR (VPYIIDLQSMHQFRQDTGTMRPVRR; ADP-ribose binding peptide) [Example 1]
cancer cell growth and survival (U-87MG cells [4]): inhibited from growing and killed
amount of increase in ADP-ribose (fold change) compared to the control group (U-87MG cells [5]): significant increase in the amount of ADP-ribose in a concentration-dependent manner

GRKKRRQRRRPQFLYVADLENMVQYRRNEHGRRRKIKR (ADP-ribose binding peptide with CPP) [Example 25]
cancer cell growth and survival (Hep G2 cells): completely killed
